What was measured:
[1] = biological target: T1, human adenosine-A2A receptors (Homo sapiens, UniProt P29274); experiment: In vitro affinity for human adenosine-A2A receptors (radioligand [3H]CGS 21680); assay type: binding; conditions: human recombinant receptors expressed in HEK-293 cells; for Ki: read-out: Adenosine receptor affinity (binding) A2A pKi (converted)
T1 construct: expressed in transfected cells; host or cells: HEK-293 cells
Protocol: Affinity of the compounds for human adenosine-A2A receptors was determined using the receptor binding assay described by D. R. Luthin et al., (Mol. Pharmacol., 47, 307, 1995), using human recombinant receptors expressed in HEK-293 cells, and [^3H]CGS 21680 as radioligand.

[2] = biological target: T2, human adenosine-A2B receptors (Homo sapiens, UniProt P29275); experiment: In vitro affinity for human adenosine-A2B receptors (radioligand [3H]MRS 1754); assay type: binding; conditions: human recombinant receptors expressed in HEK-293 cells; for Ki: read-out: Adenosine receptor affinity (binding) A2B pKi (converted)
T2 construct: expressed in transfected cells; host or cells: HEK-293 cells
T2 sequence (P29275 1-332): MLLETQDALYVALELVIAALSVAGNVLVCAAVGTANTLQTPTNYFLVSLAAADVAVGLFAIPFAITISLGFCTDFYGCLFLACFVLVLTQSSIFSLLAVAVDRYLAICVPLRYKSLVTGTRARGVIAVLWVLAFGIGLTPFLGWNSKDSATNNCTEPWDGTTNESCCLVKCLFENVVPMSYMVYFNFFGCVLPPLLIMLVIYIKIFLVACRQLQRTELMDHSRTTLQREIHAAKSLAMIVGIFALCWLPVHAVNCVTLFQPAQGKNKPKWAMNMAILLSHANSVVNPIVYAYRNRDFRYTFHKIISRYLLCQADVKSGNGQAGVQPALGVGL
Protocol: Affinity of the compounds for human adenosine-A2B receptors was determined using the receptor binding assay described by J. H. Stehle et al. (Mol. Endocrinol., 6, 384, 1992), using human recombinant receptors expressed in HEK-293 cells, and [^3H]MRS 1754 as radioligand.

[3] = biological target: T3, human adenosine-A1 receptors (Homo sapiens, UniProt P30542); experiment: In vitro affinity for human adenosine-A1 receptors (radioligand [3H]DPCPX); assay type: binding; conditions: human recombinant receptors expressed in CHO cells; for Ki: read-out: Adenosine receptor affinity (binding) A1 pKi (converted)
T3 construct: expressed in transfected cells; host or cells: CHO cells
T3 sequence (P30542 1-326): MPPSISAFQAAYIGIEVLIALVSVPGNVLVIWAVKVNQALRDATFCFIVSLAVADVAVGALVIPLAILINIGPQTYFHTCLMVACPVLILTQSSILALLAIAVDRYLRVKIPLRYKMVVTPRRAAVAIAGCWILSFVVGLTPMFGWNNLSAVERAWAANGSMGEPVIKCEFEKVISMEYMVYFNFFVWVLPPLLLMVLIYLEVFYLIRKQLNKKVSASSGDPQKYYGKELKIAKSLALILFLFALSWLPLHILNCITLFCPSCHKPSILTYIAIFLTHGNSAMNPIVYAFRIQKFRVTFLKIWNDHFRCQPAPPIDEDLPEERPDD
Protocol: Affinity of the compounds for human adenosine-A1 receptors was determined using the receptor binding assay described by A. Townsend-Nicholson and P. R. Schofield (Biol. Chem., 269, 2373, 1994), using human recombinant receptors expressed in CHO cells, and [^3H]DPCPX as radioligand.

[4] = biological target: T4, human Adenosine A3 receptor (Homo sapiens, UniProt P0DMS8); experiment: In vitro affinity for human adenosine-A3 receptors (radioligand [125I]-AB-MECA); assay type: binding; set-up: expressed in transfected cells; host or cells: HEK 293 cells (membrane preparations); conditions: membranes of HEK 293 cells stably expressing human A3, [125I]-AB-MECA, 22° C., 90 minutes; read-out: Adenosine receptor affinity (binding) A3 pKi (converted)
T4 sequence (P0DMS8 1-318): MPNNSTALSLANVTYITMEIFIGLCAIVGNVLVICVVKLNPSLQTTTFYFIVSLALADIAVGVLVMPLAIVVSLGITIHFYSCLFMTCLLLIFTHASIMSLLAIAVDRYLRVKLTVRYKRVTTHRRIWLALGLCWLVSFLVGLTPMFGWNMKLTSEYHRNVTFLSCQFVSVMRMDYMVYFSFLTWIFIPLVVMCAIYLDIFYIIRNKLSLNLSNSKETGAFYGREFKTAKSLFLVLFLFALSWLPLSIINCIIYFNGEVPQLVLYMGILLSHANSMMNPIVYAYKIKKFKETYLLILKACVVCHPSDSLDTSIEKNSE
Protocol: Affinity of the compounds for human adenosine-A3 receptors was determined using the receptor binding assay described by C. A. Salvatore et al.: “Molecular cloning and characterization of the human A3 adenosine receptor”, Proc. Natl. Acad. Sci. USA, 90, 10365-10369, 1993. Briefly, membrane preparations were obtained from human recombinant (HEK 293) cells in which the human adenosine-A3 receptor was stably expressed. […] Separation of bound radioactivity from free was done by filtration through Packard GF/B glass fiber filters with several washings with ice-cold buffer using a Packard cell harvester. Bound radioactivity was measured with a scintillation counter (Topcount, Packard) using a liquid scintillation cocktail (Microscint 0, Packard). […] Determination of In Vitro Functional Activity on Human Adenosine A3 Receptors Using an Aequorin-based Assay

[5] = biological target: T4, human Adenosine A3 receptor; experiment: In vitro functional activity on human adenosine A3 receptors using an Aequorin-based assay; assay type: cell-based; set-up: A. et al. (Acc. Number GenBank: L22607); host or cells: CHO-K1 cells stably expressing mitochondrially targeted aequorin and Galpha16; conditions: hA3-Aequorin CHO-K1 cells; for EC50: agonist mode, concentrations up to 10^−5 M, read-out: Functional activity A3 agonism pEC50 (converted); for Kb: read-out: Functional activity A3 antagonism pA2 (converted)
Source text: A stable monoclonal hA3-Aequorin cell line was provided by Euroscreen. The coding region encoding the human Adenosine A3 receptor was amplified by polymerase chain reaction (PCR), using human lung cDNA as template. The PCR product was ligated in the expression vector pEFIN3 (Invitrogen), and the complete sequence of the insert was then established. […] A. et al. (Acc. Number GenBank: L22607). The expression plasmid containing the coding sequence of the human Adenosine A3 receptor was transfected in CHO-K1 cells stably expressing mitochondrially targetted Aequorin and Gα16. Resistant clones were selected in the presence of 400 μg/ml G418 and isolated by limiting dilution. […] The hA3-Aequorin cells express mitochondrially targetted apo-Aequorin. Cells have to be loaded with coelenterazine, in order to reconstitute active Aequorin. After binding of agonists to the hA3 receptor, the intracellular calcium concentration increases, which leads to a luminescent response. Binding of calcium to the apo-Aequorin/coelenterazine complex leads to an oxidation reaction of coelenterazine, which results in the production of apo-Aequorin, coelenteramide, CO2 and light (λmax 469 nm). This luminescent response is dependent on the agonist concentration.
Assay-protocol: • Dilute the loaded cells 18× in Dulbecco's medium without PhenolRed (Gibco BRL), pre-heated to 37° C., resulting in a concentration of 2.8*10^5 cells/ml. • Stir for 1 hour at room temperature. • Add 10 μl compound or control per well in white 96-well plates. • Add 90 μl of diluted cells (2.5*10^4 cells/well). • Measure chemoluminescence immediately for 20 seconds. • In antagonist mode 50 μl 10^−6 N6-benzyl-NECA is added as the agonist. • Measure chemoluminescence immediately for 20 seconds using the MicroBetaJet (PerkinElmer).

[6] = antagonist mode, N6-benzyl-NECA as the agonist

T1 sequence (P29274 whole entry): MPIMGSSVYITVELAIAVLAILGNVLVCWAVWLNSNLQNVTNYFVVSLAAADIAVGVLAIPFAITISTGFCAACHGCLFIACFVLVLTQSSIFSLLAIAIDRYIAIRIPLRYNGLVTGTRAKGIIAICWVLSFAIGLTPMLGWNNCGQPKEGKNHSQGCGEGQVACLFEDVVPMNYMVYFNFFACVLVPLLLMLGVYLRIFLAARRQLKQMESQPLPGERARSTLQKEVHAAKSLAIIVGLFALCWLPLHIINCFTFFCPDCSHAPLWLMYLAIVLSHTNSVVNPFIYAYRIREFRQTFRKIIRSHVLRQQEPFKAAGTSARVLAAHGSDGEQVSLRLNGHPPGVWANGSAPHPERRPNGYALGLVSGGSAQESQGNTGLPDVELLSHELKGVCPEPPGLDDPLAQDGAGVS

| Structure (SMILES) | Ki [1] [µM] | Ki [2] [µM] | Ki [3] [µM] | Ki [4] [µM] | EC50 [5] [µM] | Kb [5, 6] [µM] | melting point [°C] | Adenosine receptor affinity (binding) A2A pKi [1] | Adenosine receptor affinity (binding) A2B pKi [2] | Adenosine receptor affinity (binding) A1 pKi [3] | Functional activity A3 antagonism pA2 [5, 6] |
| --- | --- | --- | --- | --- | --- | --- | --- | --- | --- | --- | --- |
| FC(F)(F)c1nc(NCc2ccccc2)nc2nc[nH]c12 [Compound 6, 6-trifluoromethyl-2-benzylamino purine] | 20 | > 10 | 3.98 | 0.02 | > 10 | 0.158 |  |  |  |  |  |
| FC(F)(F)c1nc(NCCc2ccccc2)nc2nc[nH]c12 [Compound 9, 6-trifluoromethyl-2-phenethylamino purine] | 12.6 | > 10 | 1 | 0.0126 | > 10 | 0.002 |  |  |  |  |  |
| Cn1cnc2c(C(F)(F)F)nc(NCCc3ccccc3)nc21 [Compound 10, 6-trifluoromethyl-9-methyl-2-phenethylamino purine] | 15.8 | 12.6 | 6.31 | 1.58 | > 10 | 3.16 |  |  |  |  |  |

Now from value to compound:

| Ki [1] [µM] | Ki [2] [µM] | Ki [3] [µM] | Ki [4] [µM] | EC50 [5] [µM] | Kb [5, 6] [µM] | melting point [°C] | Adenosine receptor affinity (binding) A2A pKi [1] | Adenosine receptor affinity (binding) A2B pKi [2] | Adenosine receptor affinity (binding) A1 pKi [3] | Functional activity A3 antagonism pA2 [5, 6] | Structure (SMILES) |
| --- | --- | --- | --- | --- | --- | --- | --- | --- | --- | --- | --- |
| > 10 | > 10 | > 10 | 3.16 | > 10 | 1.58 |  |  |  |  |  | Cn1cnc2c(C(F)(F)F)nc(NCc3ccccc3)nc21 [Compound 7, 6-trifluoromethyl-9-methyl-2-benzylamino purine] |
| 12.6 | > 10 | 7.94 | 0.316 |  | 0.0398 |  |  |  |  |  | OC[C@H]1O[C@@H](n2cnc3c(C(F)(F)F)nc(NCc4ccccc4)nc32)[C@H](O)[C@@H]1O [Compound 8, 2-benzylamino-6-trifluoromethyl-9-β-D-ribofuranosyl purine] |
| > 10 |  | > 10 | 1 |  |  | 131 to 139 |  |  |  |  | Cn1c(Br)nc2c(C(F)(F)F)nc(NCCc3ccccc3)nc21 [Compound 11, 8-bromo-6-trifluoromethyl-9-methyl-2-phenethylamino purine] |
|  |  |  |  |  |  |  | <5.0 | <5.0 | <5.0 | 9.8 | OC[C@H]1O[C@@H](n2cnc3c(C(F)(F)F)nc(NCCc4ccccc4)nc32)[C@H](O)[C@@H]1O [Compound 26, 2-phenethylamino-6-CF3-9-β-D-ribofuranosyl purine] |
| 20 |  | 2.51 | 0.0794 | > 10 | 7.94 |  |  |  |  |  | CC(C)(C)OC(=O)OCn1cnc2c(C(F)(F)F)nc(NCc3ccccc3)nc21 [Compound 29, 6-trifluoromethyl-2-benzylamino-9-BocOM-purine] |

From patent publication US7371737B2, “2-substituted-6-trifluoromethyl purine derivatives with adenosine-A3 antagonistic activity” (Solvay Pharmaceuticals, B.V., priority 2004, dated 2008)
